Earlier results on 1 compound are cited in patent US20060183185A1, “Method for the synthesis of astaxanthin” (priority 2004, published 2006).

The conditions of this data set: liposome systems; appropriate dose.

`CC1=C(/C=C/C(C)=C/C=C/C(C)=C/C=C/C=C(C)/C=C/C=C(C)/C=C/C2=C(C)C(=O)C(O)CC2(C)C)C(C)(C)CC(O)C1=O` (stereo not shown) [astaxanthin]: the “suppression of the peroxyl radical chain reaction” value is “completely suppress”.
